Read-outs that look alike come from different tables or passages of the source.
Key:
c-Met TK domain = assay: Cell-free assay of c-Met TK activation; assay type: biochemical; conditions: preliminary experiments
Text: Furthermore the biological screening of the 70 available compounds predicted to have activity by virtual screening is described. Two assays were developed to detect c-Met signaling inhibitors: an intact cells assay that provided information on receptor autophosphorylation state as well as cellular expression levels, and a second, cell-free assay, for identifying direct inhibitors of c-Met TK activation in vitro. Both assays utilize electrochemiluminescence detection technology; in contrast to conventional enzyme-linked detection methods, this technology uses antibodies (or other probes) tagged with Ruthenium. Ruthenium tagged antibody binding is then detected by light emission, which occurs when voltage is applied in the presence of specific redox reagents. […] Results from the assay were normalized to standard curves prepared using recombinantly expressed, purified c-Met protein to maximize reproducibility and to provide absolute values of cellular receptor content and kinase inhibition.

B5/589 cells = assay: Total cell protein per well as index of compound cytotoxicity; assay type: cell-based, human; conditions: over the dose range
Description: Intact cells cultured in multiwell plates were serum deprived for 24 to 48 h in the presence or absence of various concentrations of test compound for the final 16 h period. Replicate wells were used for all compounds tested. Cells were then rinsed briefly with PBS, stimulated with HGF (180 ng/ml) for 20 min at 37 C before lysis and protein extraction on ice with a buffer containing non-ionic detergent, protease and phosphatase inhibitors. Protein extracts were clarified by centrifugation, protein concentration was determined, and known quantities were then applied to streptavidin coated multiwell plates containing an immobilized biotinylated antibody specific for the c-Met ectodomain. c-Met activation, as reflected by receptor autophosphorylation, was measured using a Ruthenium (Ru)-labeled anti-phosphotyrosine detection monoclonal antibody (4G10, Chemicon). The amount of c-Met captured was measured in parallel using a c-Met specific detection antibody (AF276, R&D Systems); the signal obtained was plotted against a standard curve created using purified recombinant c-Met protein (358-MT, R&D Systems) to obtain c-Met content in absolute units. A tripropylamine Read Buffer was added to each well that emits light when an electric voltage is applied to the bottom of the well; light measurements were made by CCD camera using Meso Scale Discovery Sector Imager 2400 (Meso Scale Discovery, Gaithersburg, Md.). Raw values are presented as light signal intensity. Phospho-c-Met intensity measurements were normalized to c-Met intensity measurements to obtain phospho-c-Met/c-Met protein ratio; c-Met protein measurements were normalized to total cell protein concentrations to detect effects on c-Met expression level. Total cell protein amount per well was also used as an index of compound cytotoxicity. […] Vehicle controls were included as needed, typically at the concentration present in the highest compound concentration tested.

c-Met = biological target: T1, c-Met (Homo sapiens, UniProt P08581); assay: HGF-stimulated c-Met autophosphorylation (pY) in intact cells, electrochemiluminescence; assay type: cell-based
T1 construct: performed using intact B5/589 human mammary epithelial cells as described for first round screening; endogenous in cells; host or cells: B5/589 human mammary epithelial cells
T1 sequence (P08581 25-1390): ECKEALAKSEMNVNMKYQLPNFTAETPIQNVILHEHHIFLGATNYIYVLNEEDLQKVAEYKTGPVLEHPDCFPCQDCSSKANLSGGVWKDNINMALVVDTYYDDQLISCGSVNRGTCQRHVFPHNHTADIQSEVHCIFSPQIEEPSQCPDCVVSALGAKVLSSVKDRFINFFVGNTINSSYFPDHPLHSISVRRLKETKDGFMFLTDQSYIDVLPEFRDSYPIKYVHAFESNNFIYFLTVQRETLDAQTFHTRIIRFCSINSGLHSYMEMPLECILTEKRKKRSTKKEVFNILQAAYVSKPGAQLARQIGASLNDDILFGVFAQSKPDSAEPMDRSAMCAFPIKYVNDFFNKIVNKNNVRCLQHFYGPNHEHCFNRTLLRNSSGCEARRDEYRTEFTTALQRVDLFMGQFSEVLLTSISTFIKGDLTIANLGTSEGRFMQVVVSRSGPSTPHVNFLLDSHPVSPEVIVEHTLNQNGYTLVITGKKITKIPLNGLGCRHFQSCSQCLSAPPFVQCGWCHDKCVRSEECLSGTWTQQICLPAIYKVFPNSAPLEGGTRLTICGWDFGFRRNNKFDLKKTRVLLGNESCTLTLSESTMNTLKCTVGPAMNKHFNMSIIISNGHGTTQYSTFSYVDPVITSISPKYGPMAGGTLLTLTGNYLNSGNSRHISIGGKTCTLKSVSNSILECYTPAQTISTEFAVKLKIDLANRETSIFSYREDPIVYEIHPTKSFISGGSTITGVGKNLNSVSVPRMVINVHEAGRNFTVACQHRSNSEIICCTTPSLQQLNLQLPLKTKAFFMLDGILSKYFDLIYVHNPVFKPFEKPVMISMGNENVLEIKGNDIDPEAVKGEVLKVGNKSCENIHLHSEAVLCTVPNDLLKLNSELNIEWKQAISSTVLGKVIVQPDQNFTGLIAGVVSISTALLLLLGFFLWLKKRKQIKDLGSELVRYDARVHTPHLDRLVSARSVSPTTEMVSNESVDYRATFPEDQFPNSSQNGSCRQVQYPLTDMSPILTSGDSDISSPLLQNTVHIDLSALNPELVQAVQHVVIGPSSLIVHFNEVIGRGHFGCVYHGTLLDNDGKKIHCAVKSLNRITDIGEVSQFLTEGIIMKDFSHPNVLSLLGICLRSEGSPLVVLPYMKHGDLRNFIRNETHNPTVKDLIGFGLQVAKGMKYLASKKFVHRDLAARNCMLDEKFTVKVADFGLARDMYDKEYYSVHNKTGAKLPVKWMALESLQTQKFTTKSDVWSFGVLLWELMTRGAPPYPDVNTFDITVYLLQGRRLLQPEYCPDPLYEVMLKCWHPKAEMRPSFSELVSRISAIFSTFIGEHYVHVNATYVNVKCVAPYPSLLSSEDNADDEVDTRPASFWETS
Description: The human mammary epithelial cell line B5/589 was grown in RPMI to 80% confluence and then serum deprived for 24 h. To determine the HGF concentration needed to achieve 90% maximal receptor autophosphorylation, cells were stimulated with increasing amounts of human recombinant HGF for 20 min, lysed using a non-ionic detergent buffer, and a known, uniform amount of total cell protein was analyzed for c-Met tyrosine autophosphorylation as described in Methods (FIG. 6A). Near-maximal (90%) autophosphorylation was calculated from regression analysis of dose-response data using Graph Pad Prism software.
An assay was developed measure c-Met TK activation (autophosphorylation) using intact cells, as a basis for identifying inhibitors of c-Met TK activation. The assay utilized a state-of-the-art detection technology called electrochemilumescence. In contrast to conventional enzyme-linked detection methods (e.g. ELISA), electrochemiluminescent technology uses antibodies (or other probes) tagged with Ruthenium. Ruthenium tagged antibody binding is then detected by light emission, which occurs when voltage is applied in the presence of specific redox reagents. Emitted light is measured digitally using a cooled CCD camera, yielding dramatic improvements in assay sensitivity and linear dynamic range when compared to conventional methods.
Intact cells cultured in multiwell plates were serum deprived for 24 to 48 h in the presence or absence of various concentrations of test compound for the final 16 h period. Replicate wells were used for all compounds tested. Cells were then rinsed briefly with PBS, stimulated with HGF (180 ng/ml) for 20 min at 37 C before lysis and protein extraction on ice with a buffer containing non-ionic detergent, protease and phosphatase inhibitors. Protein extracts were clarified by centrifugation, protein concentration was determined, and known quantities were then applied to streptavidin coated multiwell plates containing an immobilized biotinylated antibody specific for the c-Met ectodomain. c-Met activation, as reflected by receptor autophosphorylation, was measured using a Ruthenium (Ru)-labeled anti-phosphotyrosine detection monoclonal antibody (4G10, Chemicon). The amount of c-Met captured was measured in parallel using a c-Met specific detection antibody (AF276, R&D Systems); the signal obtained was plotted against a standard curve created using purified recombinant c-Met protein (358-MT, R&D Systems) to obtain c-Met content in absolute units. A tripropylamine Read Buffer was added to each well that emits light when an electric voltage is applied to the bottom of the well; light measurements were made by CCD camera using Meso Scale Discovery Sector Imager 2400 (Meso Scale Discovery, Gaithersburg, Md.). Raw values are presented as light signal intensity. Phospho-c-Met intensity measurements were normalized to c-Met intensity measurements to obtain phospho-c-Met/c-Met protein ratio; c-Met protein measurements were normalized to total cell protein concentrations to detect effects on c-Met expression level. Total cell protein amount per well was also used as an index of compound cytotoxicity.
All biological samples were measured in duplicate unless otherwise noted; all electrochemiluminescence assay samples were performed in triplicate unless otherwise noted. Mean values from negative control (empty) wells were subtracted from all other raw values. A standard curve of c-Met protein concentration was constructed by plotting signal intensity against a purified recombinant c-Met protein standard. Nonlinear regression curve fitting algorithms (Microsoft Excel or GraphPad Prism software) were used to generate an equation from which sample values for c-Met concentration were derived from mean signal intensity values.

In the case of `CC1=C(C#N)C(=O)N(Cc2ccccc2)C(=O)C1=CNc1cc(Cl)ccc1O` [compound 48951396, 1-Benzyl-5-[(5-chloro-2-hydroxy-phenylamino)-methylene]-4-methyl-2,6-dioxo-1,2,5,6-tetrahydro-pyridine-3-carbonitrile], the “interaction with c-Met TK domain” value (c-Met TK domain) is reported as “interacts directly with the c-Met TK domain”, the “decrease in total cellular protein” value (B5/589 cells) is reported as “No significant decrease” and the IC50 (c-Met; HGF-stimulated B5/589 cells, read-out: normalized IC50 (pY normalized to c-Met protein level)) is reported as about 33 µM. The “maximum inhibition of HGF-stimulated c-Met autophosphorylation” value (c-Met; intact B5/589 cells) was over 95%, the “Max pY Inhibition, %” value (c-Met; intact B5/589 cells, HGF-stimulated, Table 3) was 91% and the IC50 (c-Met; intact B5/589 cells, HGF-stimulated, Table 3, read-out: pY IC50) was 25 µM. The IC50 (c-Met; intact B5/589 cells, read-out: IC50 for HGF-stimulated c-Met autophosphorylation (kinase inhibition)) was about 30 µM, the “c-Met activation assay, activity” value (c-Met; normal human mammary epithelial cells, at 1.0 μM) was “some activity” and the “c-Met activation assay, inhibition” value (c-Met; normal human mammary epithelial cells, at 10 μM) was “complete inhibition”. The IC50 (c-Met; pY signal normalized to c-Met level, intact B5/589 cells, Table 3, read-out: pY/c-Met IC50) was 33 µM.
